Measured values taken from patent US10865435B2, “Method of screening antibacterial compounds as inhibitor of Mfd” (INSTITUT NATIONAL DE LA RECHERCHE AGRONOMIQUE, priority 2016, dated 2020).

System: Bacillus cereus strain Bc 407
Assay: Molecule capacity to inhibit bacterial growth in the presence of artificially produced nitric oxide (cfu plating)
Format: cell-based
Protocol: Bacteria (Bacillus cereus strain Bc 407) were grown in LB medium until mid exponential growth phase at 37° C. with shaking. Cultures were then diluted to 10^4 cfu/ml in PBS (Phosphate Buffered Saline, Sigma). The molecules to be tested (potential Mfd inhibitors) are added at a concentration of 0 to 1 mM to the bacteria and the bacteria+inhibitors are incubated at room temperature for 1 h without agitation.
Bacteria were then exposed directly to chemically generated NO+ in a cell-free system as described by Miyagi et al. (Miyagi et al., 1997) with modifications. Briefly, 10^4 bacterial cfu (+various concentrations of potential Mfd inhibitors) are incubated in RPMI-1640 medium (Invitrogen) at acidic pH (pH 5.4) either in the absence or in the presence of 1.5 mM sodium nitrite (Walco Pure Chemical Industries Ltd) at 37° C. for 1 h under shaking; under these acidic conditions, NO+ is generated from the sodium nitrite by a chemical reaction (Miyagi et al., 1997).
The bacteria are harvested and plated on agar plates to evaluate bacterial survival. The cfu obtained without nitric oxide stress gives the toxicity value whereas the cfu obtained following nitric oxide stress gives the inhibitor efficacy value. Using this cell free assay, the inhibitor concentration required to decrease by 50% the survival rate of the bacteria (IC50) in the presence of nitric oxide stress compared to untreated bacteria is calculated using the GraphPad PRISM software (version 6.0, GraphPad Software, San Diego, Calif.) with non-linear regression.

Compound: CN1CC(=O)N2[C@H](c3ccc4c(c3)OCO4)c3[nH]c4ccccc4c3C[C@@H]2C1=O [tadalafil, (6R-trans)-6-(1,3-benzodioxol-5-yl)-2,3,6,7,12,12a-hexahydro-2-methyl-pyrazino[1′,2′:1,6]pyrido[3,4-b]indole-1,4-dione]
- IC50 (1.5 mM sodium nitrite, pH 5.4, 37° C., 1 h, mean of two experiments, read-out: IC50 (concentration required to decrease by 50% the survival rate of the bacteria in the presence of nitric oxide stress compared to untreated bacteria)): 98.7 µM
- activity on B. cereus survival with nitric oxide (NO) stress (with NO stress, at 100 μM): activity
- activity on B. cereus survival without stress (toxicity) (without nitric oxide stress, until 100 μM): weak activity
